Measurements as given in patent US11672753B2, “Composition for sebum control and pore minimizing” (AMOREPACIFIC CORPORATION, priority 2017, dated 2023).

How the values were obtained:
[1] = system: HaCaT keratinocytes and human sebaceous gland cells; assay: Evaluation of sebum production inhibitory activity (Oil Red O staining of triglycerides); type: cell-based; details: retinol 0.3 ppm (comparison); one day
From the text: In order to efficiently evaluate the sebum production inhibitory activity of the plant extracts of the present disclosure, sebaceous gland cells and keratinocytes were used together, and an environment in vitro model similar to that of human sebaceous glands of the hair was used. HaCaT (ATCC, Va., USA), keratinocytes (Cellprogen, Calif., USA) cells and human sebaceous gland cells were inoculated into a 24-well culture plate at 3.75×10^4 cells and 6.0×10^4 cells, respectively. After inoculation, it was allowed to stand for one day so that the cells adhered to the bottom of the culture plate. At this time, 10% of fetal bovine serum (JRH Bioscience, Tokyo, Japan), […] of streptomycin (the above two reagents, GIBCO, Milan, Italy) were added to DMEM medium (Invitrogen, Carlsbad, Calif.) and used as a medium. After one day, the cells were treated with 50 μM of linoleic acid, 50 μM of arachidonic acid, or 10 nM of dihydrotestosterone, as a stimulating source for causing seborrheic skin inflammation. […] After one day, the amount of triglycerides produced in the cells was measured using Oil Red O staining. […] Then, the […], and the absorbance was measured at 520 nm using a spectrophotometer for quantification. […]

[2] = system: procollagen-I in human fibroblasts; assay: Evaluation of procollagen-I production activity (ELISA of culture solution); type: cell-based; details: TGF-β1 0.005 ppm (comparison); two days after treatment
From the text: An enzyme-linked immunosorbent assay (ELISA) method was used to confirm the amount of procollagen-I produced by the plant extracts of the present disclosure (Youngren et al., 1999). Since procollagen-I is a substance secreted out of cells, the culture solution of the fibroblasts treated with the samples was collected and applied to the experiment as a measurement method for confirming the expression change using the cell culture solution.
Specifically, human fibroblasts (Cell biologics, IL, USA) were inoculated into a 24-well culture plate at 2.5×10^4 cells. After inoculation, it was allowed to stand for one day so that the cells adhered to the bottom of the culture plate. At this time, 2% of low serum growth supplement (LSGS; Thermo Fisher, Mass., USA), […] of streptomycin (the above two reagents, GIBCO, Milan, Italy) were added to 106 medium (Thermo Fisher, Mass., USA) and used as a medium. Each plant extract obtained in Reference Examples 1 to 7 in the experimental group was dissolved in DMSO to make a 1% solution, and then diluted in DMEM medium, and treated to a final concentration of 50 ppm. In addition, for comparison, TGF-β1, known to have the ability to produce procollagen-I, was treated at a concentration of 0.005 ppm instead of the plant extracts. Two days after the treatment with the samples, the production of procollagen-I was measured. […]

Row | Compound | Inhibition rate of sebum production (%) [1] [%] | Production rate of Procollagen-I (%) [2] [%]
1 | CC1=C(/C=C/C(C)=C/C=C/C(C)=C/CO)C(C)(C)CCC1 [Retinol] | 42.1 | 
2 | TGF-β1: known to have the ability to produce procollagen-I; comparison |  | 52.1
